Where two headings read alike, the source gives them in different places.
How the values were obtained:
[1] = Acute toxicity, oral, mice (LD50); conditions: in vivo, mouse, mortality at 72 hours, P = presumption
Experimental: a. DS male mice (20-25 g) are orally administered a suspension of test compound with gum arabic. The mortality at 72 hours is determined and the LD50 is calculated.

[2] = Acute toxicity, oral, rats (LD50); conditions: in vivo, rat, mortality on the 15th day
Experimental: b. JCL-Wistar female rats (180-220 g) are orally administered a suspension of test compound with gum arabic. The mortality on the 15th day is determined and the LD50 is calculated.

SLC-Wistar female rats [3] = test: Analgesic activity b: foot-licking method; type: in vivo, rat; conditions: read-out: Analgesic Activity b ED50
SLC-Wistar female rats [4] = test: Analgesic activity c: Randall and Selitto method; type: in vivo, rat; conditions: 2 h, read-out: Analgesic Activity c ED50
Experimental: c. Randall and Selitto method A test compound is orally given SLC-Wistar female rats (150-170 g). Five minutes later 0.1 ml of 20% yeast suspension is subcutaneously injected into the plantar tissue of the foot.

DS male mice = test: Analgesic activity a: acetic acid writhing method; type: in vivo, mouse; conditions: read-out: Analgesic Activity a ED50
Experimental: a. Acetic acid writing method
DS male mice (20-23 g) are treated with an intraperitoneal injection of 0.1 ml/10 g of 0.6% acetic acid 30 minutes after oral administration of a test compound. The number of times of writhing for 10 minutes is counted and ED50 is calculated.

JCL-Wistar female rats = test: Anti-inflammatory activity: carrageenin foot edema; type: in vivo; conditions: rat, oral, 50 mg/kg, 1.0% carrageenin, swelling 3 hours later
Experimental: A 0.9% saline solution (0.05 ml) containing 1.0% carrageenin is used as phlogistic agent. After 30 minutes JCL-Wistar female rats (180-200 g) are orally administered a test compound, the phlogistic agent is injected subcutaneously into the plantar of the foots of the rats. The volume of swelling is measured 3 hours later and anti-edema activity is determined by calculating the percentage ratio of the edematous volume of medicated foot of that of non-medicated foot.

[5] = rat, oral, 30 min before 3.7% formaldehyde s.c. in hind-paw, foot-licking for 50 minutes
[6] = rat, oral, 5 min before 20% yeast s.c. in foot, pain threshold at 120 minutes
[7] = mouse, oral, 30 min before 0.6% acetic acid i.p., writhing counted for 10 minutes

SMILES	LD50 at 72 h [1] [mg/kg]	LD50 at 360 h [2] [mg/kg]	ED50 (SLC-Wistar female rats [3]; Rattus norvegicus, po) [mg/kg]	ED50 (SLC-Wistar female rats [4]; po) [mg/kg]	ED50 (DS male mice; Mus musculus, po) [mg/kg]	ED50 (SLC-Wistar female rats [3]; [5]) [mg/kg]	Anti-inflammatory Activity (JCL-Wistar female rats) [%]	ED50 (SLC-Wistar female rats [4]; [6]) [mg/kg]	ED50 (DS male mice; [7]) [mg/kg]
COc1ccc2c(c1)c(CC(=O)O)c(C)n2C(=O)c1ccc(Cl)cc1 [Idomethacin, reference compound]	17	14	65	14	7	–	–	–	–
CC(=O)n1c2c(c3ccccc31)C(CN(C)C)CCS2 (stereo not shown) [Comp. 4]	~175	–	–	–	–	4.7	44	15.9	21
COc1cc(C)nc(-n2nc(C)cc2OC)n1 [Mepirizole, reference compound]	1150	552	–	–	–	13	–	130	110
CNCC1CCSc2[nH]c3ccccc3c21 (stereo not shown) [Comp. 1, 4-Methylaminomethyl-2,3,4,9-tetrahydrothiopyrano[2,3-b]indole]	409	295	–	–	–	1.6	66	8.4	4.2
CNCC1CCSc2c1c1ccccc1n2C (stereo not shown) [Comp. 2, 9-Methyl-4-methylaminomethyl-2,3,4,9-tetrahydrothiopyrano[2,3-b]indole]	~750	–	–	–	–	0.54	40	17.8	21.2
CNCC1CCS(=O)(=O)c2[nH]c3ccccc3c21 (stereo not shown) [Comp. 3, 4-Methylaminomethyl-2,3,4,9-tetrahydrothiopyrano[2,3-b]indole S-dioxide]	~750	–	–	–	–	2.9	25	19.1	11.7
